The source made the active and inactive calls. No cut-off for these calls is given here.
What was measured:
Escherichia coli [1] = experiment: Potentiation of rifampicin-induced antibacterial activity against wild type Escherichia coli BW25113 assessed as rifampicin MIC at 128 ug/ml incubated for 18 hrs under aerobic condition by checkerboard titration assay (reference value: 16 ug/ml); type: functional; details: dose 128 µg/ml
Escherichia coli [2] = experiment: Potentiation of TPP-induced antibacterial activity against AcrB deficient Escherichia coli BW25113 assessed as TPP MIC at 256 ug/ml incubated for 18 hrs under aerobic condition by checkerboard titration assay (reference value: 256 ug/ml); type: functional; details: dose 256 µg/ml
Escherichia coli [3] = experiment: Potentiation of chloramphenicol-induced antibacterial activity against wild type Escherichia coli BW25113 assessed as chloramphenicol MIC at 128 ug/ml incubated for 18 hrs under aerobic condition by checkerboard titration assay (reference value: 16 ug/ml); type: functional; details: dose 128 µg/ml
Escherichia coli [4] = experiment: Potentiation of TPP-induced antibacterial activity against wild type Escherichia coli BW25113 assessed as TPP MIC at 256 ug/ml incubated for 18 hrs under aerobic condition by checkerboard titration assay (reference value: 1024 ug/ml); type: functional; details: dose 256 µg/ml
Escherichia coli [5] = experiment: Potentiation of erythromycin-induced antibacterial activity against AcrB deficient Escherichia coli BW25113 assessed as erythromycin MIC at 256 ug/ml incubated for 18 hrs under aerobic condition by checkerboard titration assay (reference value: 32 ug/ml); type: functional; details: dose 256 µg/ml
Escherichia coli [6] = experiment: Potentiation of TPP-induced antibacterial activity against wild type Escherichia coli BW25113 assessed as TPP MIC at 128 ug/ml incubated for 18 hrs under aerobic condition by checkerboard titration assay (reference value: 1024 ug/ml); type: functional; details: dose 128 µg/ml
Cell membrane [7] = experiment: Induction of outer membrane permeabilization in wild type Escherichia coli BW25113 assessed as increase in nitrocefin hydrolysis at 512 ug/ml measured for 30 mins in presence of CCCP by spectrophotometry analysis; type: subcellular; details: dose 512.0 µg/ml
Escherichia coli [8] = experiment: Potentiation of chloramphenicol-induced antibacterial activity against AcrB deficient Escherichia coli BW25113 assessed as chloramphenicol MIC at 256 ug/ml incubated for 18 hrs under aerobic condition by checkerboard titration assay (reference value: 2 ug/ml); type: functional; details: dose 256 µg/ml
Escherichia coli [9] = experiment: Potentiation of chloramphenicol-induced antibacterial activity against wild type Escherichia coli BW25113 assessed as chloramphenicol MIC at 256 ug/ml incubated for 18 hrs under aerobic condition by checkerboard titration assay (reference value: 16 ug/ml); type: functional; details: dose 256 µg/ml
Escherichia coli [10] = experiment: Potentiation of rifampicin-induced antibacterial activity against wild type Escherichia coli BW25113 assessed as rifampicin MIC at 256 ug/ml incubated for 18 hrs under aerobic condition by checkerboard titration assay (reference value: 16 ug/ml); type: functional; details: dose 256 µg/ml
Escherichia coli [11] = experiment: Potentiation of erythromycin-induced antibacterial activity against wild type Escherichia coli BW25113 assessed as erythromycin MIC at 256 ug/ml incubated for 18 hrs under aerobic condition by checkerboard titration assay (reference value: 128 ug/ml); type: functional; details: dose 256 µg/ml
Escherichia coli [12] = experiment: Antibacterial activity against Wild type Escherichia coli BW25113 assessed as inhibition of AcrB efflux pump by mesuring the glucose-induced nile red efflux at 200 uM preincubated with CCCP for 15 mins followed by compound addition after 15 mins nile red added and incubated for 3 hrs in shaker by fluorimetric analysis; type: functional, organism-based; details: time 195.0 min
Cell membrane [13] = experiment: Disruption of inner membrane potential in wild type Escherichia coli BW25113 at 512 ug/ml preincubated for 10 mins followed by glucose stimulation and CCCP addition by DiOC2 probe based fluorimetric analysis; type: subcellular; details: dose 512.0 µg/ml
Escherichia coli [14] = experiment: Potentiation of chloramphenicol-induced antibacterial activity against wild type Escherichia coli BW25113 assessed as fold reduction in chloramphenicol MIC at 256 ug/ml incubated for 18 hrs under aerobic condition by checkerboard titration assay relative to chloramphenicol MIC alone; type: functional; details: dose 256 µg/ml
Escherichia coli [15] = experiment: Potentiation of erythromycin-induced antibacterial activity against wild type Escherichia coli BW25113 assessed as erythromycin MIC at 128 ug/ml incubated for 18 hrs under aerobic condition by checkerboard titration assay (reference value: 128 ug/ml); type: functional; details: dose 128 µg/ml
Escherichia coli [16] = experiment: Antibacterial activity against Wild type Escherichia coli BW25113 assessed as inhibition of AcrB efflux pump by mesuring the glucose-induced nile red efflux at 500 uM preincubated with CCCP for 15 mins followed by compound addition after 15 mins nile red added and incubated for 3 hrs in shaker by fluorimetric analysis; type: functional, organism-based; details: time 195.0 min
Escherichia coli [17] = experiment: Potentiation of chloramphenicol-induced antibacterial activity against wild type Escherichia coli BW25113 assessed as fold reduction in chloramphenicol MIC at 128 ug/ml incubated for 18 hrs under aerobic condition by checkerboard titration assay relative to chloramphenicol MIC alone; type: functional; details: dose 128 µg/ml
Escherichia coli [18] = experiment: Potentiation of erythromycin-induced antibacterial activity against wild type Escherichia coli BW25113 assessed as fold reduction in erythromycin MIC at 128 ug/ml incubated for 18 hrs under aerobic condition by checkerboard titration assay relative to erythromycin MIC alone; type: functional; details: dose 128 µg/ml
Escherichia coli [19] = experiment: Potentiation of erythromycin-induced antibacterial activity against AcrB deficient Escherichia coli BW25113 assessed as erythromycin MIC at 128 ug/ml incubated for 18 hrs under aerobic condition by checkerboard titration assay (reference value: 32 ug/ml); type: functional; details: dose 128 µg/ml
Escherichia coli [20] = experiment: Potentiation of TPP-induced antibacterial activity against AcrB deficient Escherichia coli BW25113 assessed as TPP MIC at 128 ug/ml incubated for 18 hrs under aerobic condition by checkerboard titration assay (reference value: 256 ug/ml); type: functional; details: dose 128 µg/ml
Escherichia coli [21] = experiment: Potentiation of chloramphenicol-induced antibacterial activity against AcrB deficient Escherichia coli BW25113 assessed as chloramphenicol MIC at 128 ug/ml incubated for 18 hrs under aerobic condition by checkerboard titration assay (reference value: 2 ug/ml); type: functional; details: dose 128 µg/ml

Row | Compound | MIC (Escherichia coli [1]) [µg/mL] | MIC (Escherichia coli [2]) [µg/mL] | MIC (Escherichia coli [3]) [µg/mL] | MIC (Escherichia coli [4]) [µg/mL] | MIC (Escherichia coli [5]) [µg/mL] | MIC (Escherichia coli [6]) [µg/mL] | Activity (Cell membrane [7]) | MIC (Escherichia coli [8]) [µg/mL] | MIC (Escherichia coli [9]) [µg/mL] | MIC (Escherichia coli [10]) [µg/mL] | MIC (Escherichia coli [11]) [µg/mL] | Activity (Cell membrane [13]) | MIC (Escherichia coli [15]) [µg/mL] | Activity (Escherichia coli [16]) | further results
1 | NC(=O)c1cc(OCCN2CCN(c3ccccc3)CC2)c2ccccc2c1 | 16 | 256 | 8 | 512 | 32 | 1020 | inactive | 2 | 2 | 16 | 128 | inactive | 128 |  | Activity (Escherichia coli [12]): Active; fold change (FC) (Escherichia coli [14]): 8
2 | CCCNC(=O)c1cc(OCc2ccccc2)c2ccccc2c1 | 16 |  | 16 | 1020 |  | 1020 | inactive | 2 | 4 | 8 | 128 | Active | 128 |  | 
3 | COc1ccc(CNC(=O)c2cc(OCCC(C)C)c3ccccc3c2)cc1 | 16 | 256 | 16 | 1020 | 32 | 1020 |  | 2 | 16 | 16 | 32 |  | 64 | inactive | 
4 | CC(C)CCOc1cc(C(=O)NCc2ccccc2Cl)cc2ccccc12 | 16 | 256 | 4 | 1020 | 32 | 1020 | inactive | 2 | 2 | 16 | 128 | Active | 128 | Active | fold change (FC) (Escherichia coli [17]): 4; fold change (FC) (Escherichia coli [18]): 4; fold change (FC) (Escherichia coli [14]): 8
5 | CC(C)CCOc1cc(C(=O)NCc2ccco2)cc2ccccc12 | 16 | 256 | 8 | 1020 | 32 | 1020 | inactive | 2 | 4 | 16 | 32 | Active | 64 | Active | 
6 | COc1ccc(CNC(=O)c2cc(OCc3ccccc3)c3ccccc3c2)cc1 | 16 |  | 8 | 1020 | 32 | 1020 | Active | 2 | 4 | 4 | 128 |  | 128 |  | Activity (Escherichia coli [12]): Active
7 | NC(=O)c1cc(OCCOc2ccccc2N)c2ccccc2c1 | 16 | 256 | 8 | 1020 | 32 | 1020 | Active | 2 | 4 | 16 | 128 | Active | 128 | Active | 
8 | C#CCNC(=O)c1cc(OCCC(C)C)c2ccccc2c1 | 16 | 256 | 8 | 256 | 32 | 1020 |  | 2 | 2 | 16 | 128 | Active | 128 | inactive | MIC (Escherichia coli [19]): 32 µg/mL; MIC (Escherichia coli [20]): 256 µg/mL; MIC (Escherichia coli [21]): 2 µg/mL; fold change (FC) (Escherichia coli [14]): 8
9 | CC(C)CCOc1cc(C(=O)Nc2ccccc2C(F)(F)F)cc2ccccc12 | 16 | 256 | 8 | 1020 | 32 | 1020 | inactive | 2 | 4 | 16 | 32 | inactive | 64 | Active | 
10 | NC(=O)c1cc(OCCSc2nc3ccccc3[nH]2)c2ccccc2c1 | 16 | 256 | 16 | 256 | 32 | 1020 | inactive | 2 | 16 | 16 | 128 | inactive | 128 | Active | 
11 | CC(C)CCOc1cc(C(=O)NCc2ccccc2)cc2ccccc12 | 16 | 256 | 8 | 1020 | 32 | 1020 | inactive | 1 | 4 | 8 | 32 |  | 64 |  | 

— ChEMBL document CHEMBL4715814, “Design, synthesis and biological activity evaluation of novel 4-subtituted 2-naphthamide derivatives as AcrB inhibitors” (2018)
